The text below walks through data of patent publication US20240245677A1, “SELECTED COMPOUNDS FOR TARGETED DEGRADATION OF BRD9” (C4 THERAPEUTICS, INC., priority 2021, published 2024).

SMILES strings stand for the structures. Like-named read-outs stand apart in the source and are kept apart here. Bounds are passed on as bounds.

The target of this assay is T1, BRD7 (Homo sapiens, UniProt Q9NPI1).
T1 construct: endogenously expressing BRD7 with HiBiT fusion tag via CRISPR; host or cells: HEK293T.167 (293T.167, BRD7-HiBiT HEK293, LgBiT by lentivirus)
T1 sequence (Q9NPI1 1-651): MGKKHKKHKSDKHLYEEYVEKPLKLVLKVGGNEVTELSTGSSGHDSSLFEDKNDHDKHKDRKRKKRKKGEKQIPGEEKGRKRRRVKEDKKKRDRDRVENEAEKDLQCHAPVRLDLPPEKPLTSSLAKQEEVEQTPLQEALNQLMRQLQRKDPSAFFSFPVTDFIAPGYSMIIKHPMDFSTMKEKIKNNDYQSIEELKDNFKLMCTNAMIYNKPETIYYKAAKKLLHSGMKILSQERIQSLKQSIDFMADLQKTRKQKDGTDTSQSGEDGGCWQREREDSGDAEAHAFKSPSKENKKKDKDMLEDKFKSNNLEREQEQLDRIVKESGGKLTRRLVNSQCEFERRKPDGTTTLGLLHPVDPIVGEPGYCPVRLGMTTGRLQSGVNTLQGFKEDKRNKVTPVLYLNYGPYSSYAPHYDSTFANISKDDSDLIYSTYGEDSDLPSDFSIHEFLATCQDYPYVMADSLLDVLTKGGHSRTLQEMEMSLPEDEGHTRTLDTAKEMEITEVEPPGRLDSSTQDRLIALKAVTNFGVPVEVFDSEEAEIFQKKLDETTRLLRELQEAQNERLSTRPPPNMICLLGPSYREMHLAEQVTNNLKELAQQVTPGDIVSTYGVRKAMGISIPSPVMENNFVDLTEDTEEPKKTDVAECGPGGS
Briefly: BRD7 HiBiT degradation assay in HEK293T.167 cells. The format is cell-based.

On to `COc1cc(-c2cn(C)c(=O)c(C)c2C)cc(OC)c1CN1CC[C@H](N2CCN(c3ccc(N[C@H]4CCC(=O)NC4=O)cc3F)CC2)C(F)(F)C1` [Compound 1, (S)-3-((4-(4-((S)-1-(2,6-dimethoxy-4-(1,4,5-trimethyl-6-oxo-1,6-dihydropyridin-3-yl)benzyl)-3,3-difluoropiperidin-4-yl)piperazin-1-yl)-3-fluorophenyl)amino)-piperidine-2,6-dione], for which the “% BRD7 Remaining Relative to Vehicle Control at 24 hr, Mean” value by setting is: (0.101 nM) 99.8%; (0.318 nM) 101.3%; (1.01 nM) 101.0%; (3.17 nM) 99.8%; (10.0 nM) 102.4%; (31.7 nM) 103.4%. Also, the “% BRD7 Remaining Relative to Vehicle Control at 24 hr, Mean” value runs as follows: (100 nM) 101.0%; (317 nM) 102.3%; (1000 nM) 106.3%; (3161 nM) 117.4%; (9990 nM) 143.3%. The DC50 (BRD7-HiBiT, 293T.167 cells, 24 hours, read-out: Mean DC50) was more than 10 µM and the DC50 (summary statement, read-out: DC50 against BRD7) is more than 1 µM. The Emax (BRD7-HiBiT, 293T.167 cells, 24 hours, read-out: Mean Emax (%) ± SD) worked out at 97.6 ± 6.41%. Besides, the “effect on the degradation of BRD7” value (concentrations up to 10 μM, 24 hours) is given as “no significant effect”.

Usually DC50 stands for the concentration at which degradation of the target reaches its halfway point. Broadly, the Emax is the size of the effect at its maximum, as opposed to the concentration needed.
